Laboratory results: DBAASP
In brackets after ≈: the same amount, converted by molar mass.

Key:
Assay in all cases: ≥ marks a high value that may be exact or a test limit, other limits are often not marked, values filed in µg/mL are converted to µM
[1] = tested on: Salmonella typhimurium SL1344
[2] = tested on: Escherichia coli JW2778 ΔygdD
[3] = tested on: Escherichia coli JW0368 ΔsbmA
Escherichia coli BW25113 = tested on: Escherichia coli BW25113
Escherichia coli JJ2489 = tested on: Escherichia coli JJ2489
Escherichia coli JW0013 = tested on: Escherichia coli JW0013
Escherichia coli J2210 = tested on: Escherichia coli J2210
Escherichia coli MC1041 = tested on: Escherichia coli MC1041
[4] = tested on: Salmonella enterica subsp. enterica serovar Enteritidis MH91989
[5] = tested on: Enterobacter cloacae beta-12
[6] = tested on: Staphylococcus aureus ATCC 29213
Micrococcus luteus A270 = tested on: Micrococcus luteus A270
[7] = tested on: Bacillus subtilis ATCC 6633
[8] = tested on: Candida tropicalis IOC 4560
[9] = tested on: Bacillus megaterium ATCC 10778
[10] = tested on: Serratia marcescens ATCC 4112
Escherichia coli SBS 363 = tested on: Escherichia coli SBS 363
[11] = tested on: Pseudomonas aeruginosa NCIB 10421
Candida albicans MDM8 = tested on: Candida albicans MDM8
[12] = tested on: Staphylococcus aureus ATCC 33591
[13] = tested on: Cryptococcus neoformans ATCC 32045
[14] = tested on: Candida albicans ATCC 10231
[15] = tested on: Escherichia coli ATCC 2592
[16] = tested on: Pseudomonas aeruginosa ATCC 10145
[17] = tested on: Pseudomonas aeruginosa ATCC 27853
[18] = tested on: Pseudomonas aeruginosa CICC 11421
[19] = tested on: Escherichia coli ATCC 25922
[20] = tested on: Pseudomonas aeruginosa CICC 11411
[21] = tested on: Pseudomonas aeruginosa CICC 21630
[22] = tested on: Pseudomonas aeruginosa 21328
[23] = tested on: Pseudomonas aeruginosa CICC 21625
[24] = tested on: Pseudomonas aeruginosa CICC 11431
[25] = tested on: Pseudomonas aeruginosa CICC 10419
[26] = tested on: Pseudomonas aeruginosa 25349

CC(C)C[C@H](NC(=O)[C@H](CCCN=C(N)N)NC(=O)[C@@H]1CCCN1C(=O)[C@H](CCCN=C(N)N)NC(=O)[C@@H]1CCCN1C(=O)[C@@H]1CCCN1C(=O)[C@H](CCCN=C(N)N)NC(=O)[C@@H]1CCCN1C(=O)[C@H](CCC(N)=O)NC(=O)[C@@H]1CCCN1C(=O)[C@H](CCCN=C(N)N)NC(=O)[C@H](Cc1ccc(O)cc1)NC(=O)[C@@H](NC(=O)[C@@H]1CCCN1C(=O)[C@H](CCCCN)NC(=O)[C@H](CC(N)=O)NC(=O)[C@H](CC(N)=O)NC(=O)CN)C(C)C)C(=O)O [GNNKPVYRPQPRPPRPRL]
MIC [1]: 0.192 µM (≈ 0.411 µg/mL) | MIC [2]: 0.192 µM (≈ 0.411 µg/mL) | MIC [3]: 0.133 µM (≈ 0.285 µg/mL) | MIC (Escherichia coli BW25113): 0.096 µM (≈ 0.206 µg/mL) | MIC (Escherichia coli JJ2489): 0.133 µM (≈ 0.285 µg/mL) | MIC (Escherichia coli JW0013): 0.096 µM (≈ 0.206 µg/mL) | MIC (Escherichia coli J2210): 0.252 µM (≈ 0.54 µg/mL) | MIC (Escherichia coli MC1041): 0.126 µM (≈ 0.27 µg/mL) | MIC [4]: 0.096 µM (≈ 0.206 µg/mL)

CC[C@H](C)[C@H](N)C(=O)N[C@@H](CC(C)C)C(=O)NCC(=O)N[C@@H](CCCCN)C(=O)N[C@H](C(=O)N[C@@H](Cc1c[nH]c2ccccc12)C(=O)N[C@@H](CCC(=O)O)C(=O)N1CCC[C@H]1C(=O)N[C@H](C(=O)N[C@@H](CCCCN)C(=O)N[C@@H](CO)C(=O)N[C@@H](CC(C)C)C(=O)N[C@@H](Cc1ccccc1)C(N)=O)[C@@H](C)CC)[C@@H](C)CC [ILGKIWEPIKSLF]
MIC [5]: ≥ 50 µM | MIC [6]: 50 µM (≈ 77.1 µg/mL) | MIC (Micrococcus luteus A270): 12.5 µM (≈ 19.3 µg/mL) | MIC [7]: 25 µM (≈ 38.6 µg/mL) | MIC [8]: 12.5 µM (≈ 19.3 µg/mL) | MIC [9]: 3.13 µM (≈ 4.83 µg/mL) | MIC [10]: 3.13 µM (≈ 4.83 µg/mL) | MIC (Escherichia coli SBS 363): ≥ 50 µM | MIC [11]: ≥ 50 µM | MIC (Candida albicans MDM8): ≥ 50 µM

C[C@H](NC(=O)[C@H](Cc1ccccc1)NC(=O)[C@H](CCCCN)NC(=O)[C@H](CCCCN)NC(=O)[C@H](C)NC(=O)[C@H](Cc1ccccc1)NC(=O)[C@H](CCCCN)NC(=O)[C@H](CCCCN)NC(=O)[C@H](C)NC(=O)[C@H](Cc1ccccc1)NC(=O)[C@@H](N)CCCCN)C(=O)N[C@@H](CCCCN)C(=O)O [KFAKKFAKKFAK]
MIC [12]: ≥ 347 µM | MIC [13]: ≥ 123 µM | MIC [14]: 260 µM (≈ 374 µg/mL) | MIC [15]: ≥ 173 µM | MIC [16]: ≥ 347 µM

NCCCC[C@H](NC(=O)[C@H](Cc1ccccc1)NC(=O)[C@H](Cc1ccccc1)NC(=O)[C@H](CCCCN)NC(=O)[C@H](CCCCN)NC(=O)[C@H](Cc1ccccc1)NC(=O)[C@H](Cc1ccccc1)NC(=O)[C@H](CCCCN)NC(=O)[C@H](CCCCN)NC(=O)[C@H](Cc1ccccc1)NC(=O)[C@H](Cc1ccccc1)NC(=O)[C@H](CCCCN)NC(=O)[C@H](CCCCN)NC(=O)[C@H](Cc1ccccc1)NC(=O)[C@H](Cc1ccccc1)NC(=O)[C@H](CCCCN)NC(=O)[C@H](CCCCN)NC(=O)[C@H](Cc1ccccc1)NC(=O)[C@H](Cc1ccccc1)NC(=O)[C@H](CCCCN)NC(=O)[C@H](CCCCN)NC(=O)[C@H](Cc1ccccc1)NC(=O)[C@H](Cc1ccccc1)NC(=O)[C@H](CCCCN)NC(=O)[C@H](CCCCN)NC(=O)[C@H](Cc1ccccc1)NC(=O)[C@H](Cc1ccccc1)NC(=O)[C@@H](N)CCCCN)C(=O)O [KFFKKFFKKFFKKFFKKFFKKFFKKFFK]
MIC [12]: ≥ 64.6 µM | MIC [13]: 22.7 µM (≈ 88 µg/mL) | MIC [14]: 91.3 µM (≈ 354 µg/mL) | MIC [15]: ≥ 32.3 µM | MIC [16]: ≥ 32.3 µM

CC(C)C[C@H](NC(=O)[C@H](CCCN=C(N)N)NC(=O)[C@H](CCCN=C(N)N)NC(=O)[C@H](CC(C)C)NC(=O)[C@H](CCCN=C(N)N)NC(=O)[C@H](CCCN=C(N)N)NC(=O)[C@H](CCCN=C(N)N)NC(=O)[C@H](Cc1c[nH]c2ccccc12)NC(=O)[C@H](CCCN=C(N)N)NC(=O)[C@H](CCCN=C(N)N)NC(=O)[C@H](CCCN=C(N)N)NC(=O)[C@H](CC(C)C)NC(=O)[C@H](CCCN=C(N)N)NC(=O)[C@H](CCCN=C(N)N)NC(=O)[C@@H](N)CC(C)C)C(N)=O [LRRLRRRWRRRLRRL]
MIC [6]: 7.21 µM (≈ 16 µg/mL) | MIC [17]: 7.21 µM (≈ 16 µg/mL) | MIC [18]: 14.4 µM (≈ 32 µg/mL) | MIC [19]: 7.21 µM (≈ 16 µg/mL) | MIC [20]: 14.4 µM (≈ 32 µg/mL) | MIC [21]: 7.21 µM (≈ 16 µg/mL) | MIC [22]: 14.4 µM (≈ 32 µg/mL) | MIC [23]: 7.21 µM (≈ 16 µg/mL) | MIC [24]: 7.21 µM (≈ 16 µg/mL) | MIC [25]: 14.4 µM (≈ 32 µg/mL) | MIC [26]: 3.61 µM (≈ 8 µg/mL)
